# Results from publication PMC8963254, “Effects of Lysine N-ζ-Methylation in Ultrashort Tetrabasic Lipopeptides (UTBLPs) on the Potentiation of Rifampicin, Novobiocin, and Niclosamide in Gram-Negative Bacteria” (Antibiotics, 2022).
# Like-named read-outs stand apart in the source and are kept apart here. Non-standard residues stand in square brackets, D forms with d. Residues, ends and D or L forms follow the SMILES beside them. *: point of attachment. Lys(Me) = CNCCCC[C@H](N)C(=O)O; Octanoyl = CCCCCCCC(=O)*
# Tests used:
# [1] = test system: P. aeruginosa PA259-96196; assay: microbe, parasite or virus in culture; assay type: cell-based, Pseudomonas aeruginosa; conditions: PA259-96196, 18 h
# Procedure, shortened: (§1)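 Minimum inhibitory concentration came from a CLSI broth dilution assay: 18 h at 37 °C, inoculum 5 × 10^5 CFU/mL final.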
# [2] = test system: P. aeruginosa PA262-101856; assay: microbe, parasite or virus in culture; assay type: cell-based, Pseudomonas aeruginosa; conditions: PA262-101856, 18 h
# Procedure, shortened: as §1
# P. aeruginosa PAO1 [3] = assay type: cell-based, Pseudomonas aeruginosa; conditions: PAO1, 18 h
# Procedure, shortened: as §1
# A. baumannii ATCC 17978 = assay type: cell-based, Acinetobacter baumannii; conditions: for MICUTBLP: UTBLP alone
# Procedure, shortened: (§2)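 Checkerboard synergy assay: antibiotic and OMP combined at varying concentrations with 5 × 10^5 CFU/mL inoculum (final), 37 °C, 18 h; growth read as turbidity at 590 nm. FICI = sum of FICs (MIC in combination / MIC alone); ≤0.5 synergistic, 0.5–4 additive, >4 antagonistic.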
# A. baumannii 92247 = assay type: cell-based, Acinetobacter baumannii; conditions: for MICUTBLP: UTBLP alone
# Procedure, shortened: as §2
# A. baumannii AB027 = assay type: cell-based, Acinetobacter baumannii; conditions: for MICUTBLP: UTBLP alone
# Procedure, shortened: as §2
# MRSA ATCC 33592 = assay type: cell-based, Staphylococcus aureus; conditions: ATCC 33592, 18 h
# Procedure, shortened: as §1
# S. aureus ATCC 29213 = assay type: cell-based, Staphylococcus aureus; conditions: ATCC 29213, 18 h
# Procedure, shortened: as §1
# E. cloacae 118564 [4] = assay type: cell-based, Enterobacter cloacae; conditions: for MICUTBLP: UTBLP alone
# Procedure, shortened: as §2
# E. cloacae 118564 [5] = assay: microbe, parasite or virus in culture; assay type: cell-based, Enterobacter cloacae; conditions: 118564, 18 h
# Procedure, shortened: as §1
# [6] = test system: P. aeruginosa PA259-96196; assay type: cell-based, Pseudomonas aeruginosa; conditions: for MICUTBLP: UTBLP alone
# Procedure, shortened: as §2
# [7] = test system: P. aeruginosa PA262-101856; assay type: cell-based, Pseudomonas aeruginosa; conditions: for MICUTBLP: UTBLP alone
# Procedure, shortened: as §2
# P. aeruginosa PAO1 [8] = assay type: cell-based, Pseudomonas aeruginosa; conditions: for MICUTBLP: UTBLP alone
# Procedure, shortened: as §2
# [9] = UTBLP in combination with chloramphenicol
# [10] = UTBLP in combination with niclosamide
# [11] = UTBLP in combination with novobiocin
# [12] = UTBLP in combination with rifampicin
# [13] = chloramphenicol in combination with the UTBLP
# [14] = niclosamide in combination with the UTBLP
# [15] = novobiocin in combination with the UTBLP
# [16] = rifampicin in combination with the UTBLP
compound,measurement,setting,value
CCCCCCCC(=O)NCCCC[C@H](NC(=O)CCCCCCC)C(=O)N[C@@H](CCCCNC)C(=O)N[C@@H](CCCCNC)C(=O)N[C@@H](CCCCNC)C(=O)N[C@@H](CCCCNC)C(N)=O [UTBLP 6] (Octanoyl-K(Octanoyl)[Lys(Me)][Lys(Me)][Lys(Me)][Lys(Me)]-NH2),MIC,[1],> 128 µg/mL
same,MIC,[2],> 128 µg/mL
same,MIC,P. aeruginosa PAO1 [3],>128 µg/mL
same,Interpretation,A. baumannii ATCC 17978; UTBLP + chloramphenicol,Additive (0.5 < x ≤ 4 is additive)
same,Interpretation,A. baumannii ATCC 17978; UTBLP + niclosamide,Synergy (FICI ≤ 0.5 is synergistic)
same,Interpretation,A. baumannii ATCC 17978; UTBLP + novobiocin,Synergy (FICI ≤ 0.5 is synergistic)
same,Interpretation,A. baumannii ATCC 17978; UTBLP + rifampicin,Synergy (FICI ≤ 0.5 is synergistic)
same,MICUTBLP,A. baumannii ATCC 17978; plate with chloramphenicol,64 µg/mL
same,MICUTBLP,A. baumannii ATCC 17978; plate with niclosamide,64 µg/mL
same,MICUTBLP,A. baumannii ATCC 17978; plate with novobiocin,64 µg/mL
same,MICUTBLP,A. baumannii ATCC 17978; plate with rifampicin,64 µg/mL
same,MICUTBLP [MICcombo],A. baumannii ATCC 17978; [9],8 µg/mL
same,MICUTBLP [MICcombo],A. baumannii ATCC 17978; [10],1 µg/mL
same,MICUTBLP [MICcombo],A. baumannii ATCC 17978; [11],4 µg/mL
same,MICUTBLP [MICcombo],A. baumannii ATCC 17978; [12],2 µg/mL
same,MICantibiotic [MICcombo],A. baumannii ATCC 17978; [13],32 µg/mL
same,MICantibiotic [MICcombo],A. baumannii ATCC 17978; [14],4 µg/mL
same,MICantibiotic [MICcombo],A. baumannii ATCC 17978; [15],0.25 µg/mL
same,MICantibiotic [MICcombo],A. baumannii ATCC 17978; [16],0.031 µg/mL
same,Interpretation,A. baumannii 92247; UTBLP + novobiocin,Synergy (FICI ≤ 0.5 is synergistic)
same,Interpretation,A. baumannii 92247; UTBLP + rifampicin,Synergy (FICI ≤ 0.5 is synergistic)
same,MICUTBLP,A. baumannii 92247; plate with novobiocin,32 µg/mL
same,MICUTBLP,A. baumannii 92247; plate with rifampicin,32 µg/mL
same,MICUTBLP [MICcombo],A. baumannii 92247; [11],1 µg/mL
same,MICUTBLP [MICcombo],A. baumannii 92247; [12],0.5 µg/mL
same,MICantibiotic [MICcombo],A. baumannii 92247; [15],0.125 µg/mL
same,MICantibiotic [MICcombo],A. baumannii 92247; [16],0.063 µg/mL
same,Interpretation,A. baumannii AB027; UTBLP + novobiocin,Synergy (FICI ≤ 0.5 is synergistic)
same,Interpretation,A. baumannii AB027; UTBLP + rifampicin,Synergy (FICI ≤ 0.5 is synergistic)
same,MICUTBLP,A. baumannii AB027; plate with novobiocin,> 128 µg/mL
same,MICUTBLP,A. baumannii AB027; plate with rifampicin,> 128 µg/mL
same,MICUTBLP [MICcombo],A. baumannii AB027; [11],16 µg/mL
same,MICUTBLP [MICcombo],A. baumannii AB027; [12],16 µg/mL
same,MICantibiotic [MICcombo],A. baumannii AB027; [15],0.031 µg/mL
same,MICantibiotic [MICcombo],A. baumannii AB027; [16],0.002 µg/mL
same,MIC,MRSA ATCC 33592,>128 µg/mL
same,MIC,S. aureus ATCC 29213,128 µg/mL
same,Interpretation,E. cloacae 118564 [4]; UTBLP + novobiocin,Synergy (FICI ≤ 0.5 is synergistic)
same,Interpretation,E. cloacae 118564 [4]; UTBLP + rifampicin,Synergy (FICI ≤ 0.5 is synergistic)
same,MICUTBLP,E. cloacae 118564 [4]; plate with novobiocin,> 128 µg/mL
same,MICUTBLP,E. cloacae 118564 [4]; plate with rifampicin,> 128 µg/mL
same,MICUTBLP [MICcombo],E. cloacae 118564 [4]; [11],16 µg/mL
same,MICUTBLP [MICcombo],E. cloacae 118564 [4]; [12],16 µg/mL
same,MICantibiotic [MICcombo],E. cloacae 118564 [4]; [15],1 µg/mL
same,MICantibiotic [MICcombo],E. cloacae 118564 [4]; [16],0.5 µg/mL
same,MIC,E. cloacae 118564 [5],> 128 µg/mL
same,Interpretation,[6]; UTBLP + novobiocin,Synergy (FICI ≤ 0.5 is synergistic)
same,Interpretation,[6]; UTBLP + rifampicin,Synergy (FICI ≤ 0.5 is synergistic)
same,MICUTBLP,[6]; plate with novobiocin,> 128 µg/mL
same,MICUTBLP,[6]; plate with rifampicin,> 128 µg/mL
same,MICUTBLP [MICcombo],[6]; [11],16 µg/mL
same,MICUTBLP [MICcombo],[6]; [12],16 µg/mL
same,MICantibiotic [MICcombo],[6]; [15],128 µg/mL
same,MICantibiotic [MICcombo],[6]; [16],2 µg/mL
same,Interpretation,[7]; UTBLP + novobiocin,Synergy (FICI ≤ 0.5 is synergistic)
same,Interpretation,[7]; UTBLP + rifampicin,Additive (0.5 < x ≤ 4 is additive)
same,MICUTBLP,[7]; plate with novobiocin,> 128 µg/mL
same,MICUTBLP,[7]; plate with rifampicin,> 128 µg/mL
same,MICUTBLP [MICcombo],[7]; [11],16 µg/mL
same,MICUTBLP [MICcombo],[7]; [12],16 µg/mL
same,MICantibiotic [MICcombo],[7]; [15],128 µg/mL
same,MICantibiotic [MICcombo],[7]; [16],256 µg/mL
same,Interpretation,P. aeruginosa PAO1 [8]; UTBLP + chloramphenicol,Synergy (FICI ≤ 0.5 is synergistic)
same,Interpretation,P. aeruginosa PAO1 [8]; UTBLP + niclosamide,Synergy (FICI ≤ 0.5 is synergistic)
same,Interpretation,P. aeruginosa PAO1 [8]; UTBLP + novobiocin,Synergy (FICI ≤ 0.5 is synergistic)
same,Interpretation,P. aeruginosa PAO1 [8]; UTBLP + rifampicin,Synergy (FICI ≤ 0.5 is synergistic)
same,MICUTBLP,P. aeruginosa PAO1 [8]; plate with chloramphenicol,> 128 µg/mL
same,MICUTBLP,P. aeruginosa PAO1 [8]; plate with niclosamide,> 128 µg/mL
same,MICUTBLP,P. aeruginosa PAO1 [8]; plate with novobiocin,> 128 µg/mL
same,MICUTBLP,P. aeruginosa PAO1 [8]; plate with rifampicin,> 128 µg/mL
same,MICUTBLP [MICcombo],P. aeruginosa PAO1 [8]; [9],16 µg/mL
same,MICUTBLP [MICcombo],P. aeruginosa PAO1 [8]; [10],16 µg/mL
same,MICUTBLP [MICcombo],P. aeruginosa PAO1 [8]; [11],16 µg/mL
same,MICUTBLP [MICcombo],P. aeruginosa PAO1 [8]; [12],16 µg/mL
same,MICantibiotic [MICcombo],P. aeruginosa PAO1 [8]; [13],2 µg/mL
same,MICantibiotic [MICcombo],P. aeruginosa PAO1 [8]; [14],2 µg/mL
same,MICantibiotic [MICcombo],P. aeruginosa PAO1 [8]; [15],32 µg/mL
same,MICantibiotic [MICcombo],P. aeruginosa PAO1 [8]; [16],1 µg/mL
